For experiment [1], the target named is T1, CamA (Clostridioides difficile, UniProt Q183J3).
T1 sequence (Q183J3 1-577): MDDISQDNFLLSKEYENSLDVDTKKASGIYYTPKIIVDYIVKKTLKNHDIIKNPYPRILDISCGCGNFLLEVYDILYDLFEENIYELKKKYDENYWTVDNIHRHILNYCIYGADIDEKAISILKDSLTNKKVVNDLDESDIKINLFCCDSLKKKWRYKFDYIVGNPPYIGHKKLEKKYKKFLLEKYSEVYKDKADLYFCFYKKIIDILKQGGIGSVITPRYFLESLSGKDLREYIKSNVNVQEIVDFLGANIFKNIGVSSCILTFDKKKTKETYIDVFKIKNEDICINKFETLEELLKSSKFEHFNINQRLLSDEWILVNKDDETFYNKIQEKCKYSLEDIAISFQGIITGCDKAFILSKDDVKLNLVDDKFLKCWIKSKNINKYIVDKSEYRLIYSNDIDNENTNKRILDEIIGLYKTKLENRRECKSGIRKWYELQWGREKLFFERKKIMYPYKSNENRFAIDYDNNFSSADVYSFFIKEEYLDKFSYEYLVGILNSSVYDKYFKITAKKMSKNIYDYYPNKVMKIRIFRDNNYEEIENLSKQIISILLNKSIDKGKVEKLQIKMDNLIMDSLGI
The experiment in a line: CamA methylation inhibition assay. The format is biochemical. Particulars: for inhibition of CamA activity at single concentration / inhibition of CamA activity (selectivity panel): 10 μM compound; for inhibition of CamA activity at single concentration: 50 nM CamA, 40 μM SAM (Figure 1B); for inhibition of CamA activity (selectivity panel): 40 μM SAM (Figure 4A); for fold difference in CamA inhibition between 11a and 11b: 11a more potent than 11b.

The next experiment concerns the target PRMT3 (Homo sapiens, UniProt O60678). Put plainly: PRMT3 inhibition, fluorescence-based SAHH-coupled assay. It counts as biochemical.
The target of a further experiment is CcrM (Caulobacter vibrioides, UniProt P0CAW2). The experiment in a line: Compound selectivity assay. Particulars: read-out: inhibition of CcrM activity, 10 μM compound, 40 μM SAM (Figure 4B). It counts as biochemical.
Chain of CcrM (P0CAW2 whole entry): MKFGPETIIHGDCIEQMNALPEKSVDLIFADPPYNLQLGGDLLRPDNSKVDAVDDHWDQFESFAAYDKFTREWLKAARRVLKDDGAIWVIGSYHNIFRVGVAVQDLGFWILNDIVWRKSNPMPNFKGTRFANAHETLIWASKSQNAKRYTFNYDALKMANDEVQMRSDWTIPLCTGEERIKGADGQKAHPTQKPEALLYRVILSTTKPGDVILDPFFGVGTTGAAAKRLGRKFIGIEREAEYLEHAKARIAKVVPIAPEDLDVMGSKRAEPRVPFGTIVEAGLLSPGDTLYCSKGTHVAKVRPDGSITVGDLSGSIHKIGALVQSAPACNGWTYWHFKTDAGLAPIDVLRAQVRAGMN
A further experiment has as its target T2, Dam (Escherichia coli, UniProt P0AEE8).
T2 sequence (P0AEE8 1-278): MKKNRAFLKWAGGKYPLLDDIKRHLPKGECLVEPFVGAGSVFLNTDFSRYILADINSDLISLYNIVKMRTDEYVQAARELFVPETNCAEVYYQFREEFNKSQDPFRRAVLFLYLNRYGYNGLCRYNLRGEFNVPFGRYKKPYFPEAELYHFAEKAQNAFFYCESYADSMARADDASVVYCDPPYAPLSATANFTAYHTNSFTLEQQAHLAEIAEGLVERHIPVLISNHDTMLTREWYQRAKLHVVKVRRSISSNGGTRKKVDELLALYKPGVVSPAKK
The experiment in a line: Compound selectivity assay. It counts as biochemical. As to conditions: read-out: inhibition of Dam activity, 10 μM compound, 40 μM SAM (Figure 4C).

For another experiment, the target named is MettL3–MettL14 (Homo sapiens, UniProt Q86U44). The experiment in a line: Compound selectivity assay. The format is biochemical. Particulars: for inhibition at 10 µM: read-out: inhibition of MettL3–MettL14 activity.
Chain of MettL3–MettL14 (Q86U44 whole entry): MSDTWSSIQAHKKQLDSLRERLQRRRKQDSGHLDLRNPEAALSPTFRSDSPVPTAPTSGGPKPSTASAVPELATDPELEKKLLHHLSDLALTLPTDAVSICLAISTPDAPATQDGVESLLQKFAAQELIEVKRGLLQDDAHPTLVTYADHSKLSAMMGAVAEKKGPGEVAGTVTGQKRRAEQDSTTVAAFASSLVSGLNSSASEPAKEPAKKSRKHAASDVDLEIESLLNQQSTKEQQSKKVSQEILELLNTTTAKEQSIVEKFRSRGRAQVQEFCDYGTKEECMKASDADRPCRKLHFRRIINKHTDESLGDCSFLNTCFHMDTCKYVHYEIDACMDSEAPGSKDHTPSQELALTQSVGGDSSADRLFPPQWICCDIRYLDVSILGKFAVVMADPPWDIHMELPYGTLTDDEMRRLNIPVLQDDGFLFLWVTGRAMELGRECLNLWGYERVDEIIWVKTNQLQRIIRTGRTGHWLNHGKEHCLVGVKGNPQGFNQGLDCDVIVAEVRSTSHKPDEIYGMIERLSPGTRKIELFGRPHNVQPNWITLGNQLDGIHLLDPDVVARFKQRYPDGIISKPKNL
Chain of MettL3–MettL14 (Q9HCE5 whole entry partner): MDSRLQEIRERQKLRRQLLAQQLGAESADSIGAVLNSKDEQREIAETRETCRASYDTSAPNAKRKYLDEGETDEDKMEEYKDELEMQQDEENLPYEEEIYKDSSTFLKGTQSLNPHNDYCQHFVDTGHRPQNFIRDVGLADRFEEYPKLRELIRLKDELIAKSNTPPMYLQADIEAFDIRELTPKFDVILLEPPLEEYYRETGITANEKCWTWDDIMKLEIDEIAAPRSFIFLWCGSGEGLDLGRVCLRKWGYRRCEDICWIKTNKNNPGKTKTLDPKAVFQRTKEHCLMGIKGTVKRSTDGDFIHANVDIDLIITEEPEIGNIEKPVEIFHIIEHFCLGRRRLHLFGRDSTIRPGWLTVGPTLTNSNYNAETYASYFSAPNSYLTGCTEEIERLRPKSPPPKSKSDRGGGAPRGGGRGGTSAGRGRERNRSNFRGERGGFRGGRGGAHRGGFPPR
A further experiment concerns the target MettL5–Trm112 (Homo sapiens, UniProt Q9NRN9). The experiment in a line: Compound selectivity assay. It counts as biochemical. Particulars: read-out: inhibition of MettL5–Trm112 activity.
Another experiment concerns the target T3, MettL16 (Homo sapiens, UniProt Q86W50).
T3 sequence (Q86W50 1-562): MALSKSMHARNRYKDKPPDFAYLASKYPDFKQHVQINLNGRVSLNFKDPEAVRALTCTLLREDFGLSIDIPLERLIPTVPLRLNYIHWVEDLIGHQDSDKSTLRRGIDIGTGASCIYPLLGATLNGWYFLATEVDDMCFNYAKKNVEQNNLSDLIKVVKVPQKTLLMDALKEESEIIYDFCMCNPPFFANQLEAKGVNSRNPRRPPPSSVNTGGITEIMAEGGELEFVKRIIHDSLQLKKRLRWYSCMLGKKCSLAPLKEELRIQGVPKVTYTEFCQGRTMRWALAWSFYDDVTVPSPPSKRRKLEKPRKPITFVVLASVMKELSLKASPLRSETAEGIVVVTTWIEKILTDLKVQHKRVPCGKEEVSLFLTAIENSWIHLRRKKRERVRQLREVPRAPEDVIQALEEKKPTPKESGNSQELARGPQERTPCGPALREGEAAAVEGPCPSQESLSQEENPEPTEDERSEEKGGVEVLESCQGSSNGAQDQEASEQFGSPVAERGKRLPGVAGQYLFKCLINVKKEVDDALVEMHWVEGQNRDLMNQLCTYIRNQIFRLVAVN
Put plainly: Compound selectivity assay. The format is biochemical. As to conditions: read-out: inhibition of MettL16 activity, 10 μM compound, 160 μM SAM (Figure 4F).

A further experiment has as its target PCIF1 (Homo sapiens, UniProt Q9H4Z3). Put plainly: Compound selectivity assay. The format is biochemical. Particulars: read-out: inhibition of PCIF1 activity.
A further experiment deals with PRMT1 (Homo sapiens, UniProt Q99873). The experiment in a line: PRMT1 inhibition, fluorescence-based SAHH-coupled assay. It counts as biochemical. As to conditions: for IC50: IC50 PRMT1, 0.1 μM PRMT1, 10 μM SAM, 5 μM H4 peptide (1–21).
Chain of PRMT1 (Q99873 10-352 isoform Q99873-3): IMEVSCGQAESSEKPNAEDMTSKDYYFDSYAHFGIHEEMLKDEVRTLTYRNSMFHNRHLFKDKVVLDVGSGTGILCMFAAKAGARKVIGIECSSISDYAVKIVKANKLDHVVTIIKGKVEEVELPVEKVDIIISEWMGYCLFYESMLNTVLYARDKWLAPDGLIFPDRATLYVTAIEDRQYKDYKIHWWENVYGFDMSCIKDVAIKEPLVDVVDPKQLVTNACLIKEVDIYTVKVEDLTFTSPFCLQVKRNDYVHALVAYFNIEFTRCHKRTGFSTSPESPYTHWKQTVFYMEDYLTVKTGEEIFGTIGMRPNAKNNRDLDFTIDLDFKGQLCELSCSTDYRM
Experiment [2] addresses T1, CamA. Particulars: read-out: Km of CamA for SAM; previous measurements; cited from earlier work.
The test system of another experiment is MettL5. As to conditions: read-out: SAM Km of MettL5; cited from earlier work.

The values that follow come from paper PMC10127221 (ACS Chemical Biology, 2023).

Entries after “also recorded” stand apart in the source; their conditions may differ. Like-named read-outs stand apart in the source and are kept apart here.

Chain of MettL5–Trm112 (Q9NRN9 whole entry): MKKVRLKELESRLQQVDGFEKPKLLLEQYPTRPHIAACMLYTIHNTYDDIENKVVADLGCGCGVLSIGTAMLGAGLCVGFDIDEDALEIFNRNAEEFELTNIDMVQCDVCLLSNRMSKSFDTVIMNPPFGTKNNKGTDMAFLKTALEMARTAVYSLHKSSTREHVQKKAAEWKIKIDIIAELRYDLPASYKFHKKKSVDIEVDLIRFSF
Chain of MettL5–Trm112 (Q9UI30 whole entry partner): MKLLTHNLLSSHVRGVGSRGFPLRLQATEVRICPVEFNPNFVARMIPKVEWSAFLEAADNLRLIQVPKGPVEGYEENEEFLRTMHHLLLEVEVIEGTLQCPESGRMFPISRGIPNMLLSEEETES
Chain of PCIF1 (Q9H4Z3 whole entry): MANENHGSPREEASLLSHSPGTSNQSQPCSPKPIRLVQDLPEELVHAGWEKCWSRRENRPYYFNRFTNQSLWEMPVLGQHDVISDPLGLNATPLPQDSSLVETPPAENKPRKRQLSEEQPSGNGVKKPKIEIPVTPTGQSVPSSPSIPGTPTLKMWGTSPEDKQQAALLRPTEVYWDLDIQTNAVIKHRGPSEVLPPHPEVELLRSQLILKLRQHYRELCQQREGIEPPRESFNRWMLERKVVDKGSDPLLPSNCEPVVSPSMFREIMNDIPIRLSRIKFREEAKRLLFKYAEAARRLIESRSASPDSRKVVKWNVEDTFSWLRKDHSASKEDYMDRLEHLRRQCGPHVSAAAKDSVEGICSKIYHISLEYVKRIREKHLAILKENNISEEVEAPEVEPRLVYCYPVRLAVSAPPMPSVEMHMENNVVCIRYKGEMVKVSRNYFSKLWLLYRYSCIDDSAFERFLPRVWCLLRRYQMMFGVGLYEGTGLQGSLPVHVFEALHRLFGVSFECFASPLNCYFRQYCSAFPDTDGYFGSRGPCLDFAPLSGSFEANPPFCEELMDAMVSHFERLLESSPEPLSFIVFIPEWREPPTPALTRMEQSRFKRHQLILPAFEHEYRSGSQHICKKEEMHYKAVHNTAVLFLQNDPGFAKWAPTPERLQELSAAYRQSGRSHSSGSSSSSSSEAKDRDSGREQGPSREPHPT
Chain of PRMT3 (O60678 211-531): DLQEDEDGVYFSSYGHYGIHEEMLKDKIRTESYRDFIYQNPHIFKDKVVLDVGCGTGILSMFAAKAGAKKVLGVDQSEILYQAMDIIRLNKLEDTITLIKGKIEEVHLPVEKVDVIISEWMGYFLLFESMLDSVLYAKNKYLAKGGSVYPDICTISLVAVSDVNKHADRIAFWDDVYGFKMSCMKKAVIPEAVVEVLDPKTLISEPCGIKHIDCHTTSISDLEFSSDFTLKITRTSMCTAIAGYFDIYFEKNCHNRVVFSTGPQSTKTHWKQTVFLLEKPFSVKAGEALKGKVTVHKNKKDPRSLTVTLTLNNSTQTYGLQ

On to `Nc1ncnc2c1ccn2[C@@H]1O[C@H]([C@H](O)c2ccccc2)[C@@H](O)[C@H]1O` [LLY-283, reference compound], for which, at CamA [1] (10 μM, Figure 1B, also ref 31), the “inhibition of CamA compared with compounds 1–3 (in words)” value is “much weaker inhibition”.

Take `N=C(NCCCSC[C@H]1O[C@@H](n2cnc3c(N)ncnc32)[C@H](O)[C@@H]1O)NCc1ccccc1` [6g]: on CamA [1], the “inhibition of CamA activity at single concentration” value was approximately 10%.

As usually defined, the IC50 is the midpoint of a concentration-inhibition curve. Usually inhibition stands for the percentage by which the read-out fell short of the control. Regarding `N=C(NCCCSC[C@H]1O[C@@H](n2cnc3c(N)ncnc32)[C@H](O)[C@@H]1O)NCC1CCCCC1` [6e], the “inhibition of CamA activity at single concentration” value against CamA [1] is given as approximately 85%. For the same molecule, the “inhibition of CamA activity (selectivity panel)” value against CamA [1] was not below 80%. Also, on CamA [1] (ratio of IC50 values), the “fold improved potency of CamA inhibition relative to SGC0946” value is more than 3 ×. The “fold weaker inhibition of CamA than of PRMT1” value at CamA [1] (ratio of IC50 values CamA vs PRMT1) was found to be 12.5 ×. In addition, the “fold stronger inhibition of CamA than of PRMT3” value at CamA [1] (ratio of IC50 values CamA vs PRMT3) is on record as more than 4 ×. Also, the IC50 at PRMT3 is 6500 nM; against MettL3–MettL14, more than 10000 nM. For the same molecule, the inhibition at 10 µM is not above 50% at CcrM; not above 50% on Dam; approximately 50% at MettL3–MettL14; approximately 50% on MettL5–Trm112; not above 50% on MettL16; not above 50% on PCIF1.

With `OC[C@H]1O[C@@H](n2cnc3c(NCCCc4ccccc4)ncnc32)[C@H](O)[C@@H]1O` [compound 7, N6-phenylpropyladenosine], the “inhibition of PRMT1 (in words)” value against PRMT1 is reported as “does not significantly inhibit; also recorded: inhibits neither”. Further, the “inhibition of PRMT3 (in words)” value on PRMT3 was “does not significantly inhibit; also recorded: inhibits neither”. Moreover, the inhibition at 10 µM at CcrM, on Dam, on MettL3–MettL14, at MettL5–Trm112, on MettL16 and on PCIF1 was not above 50% each time.

By Ki is commonly meant a dissociation constant, usually derived from enzyme kinetics or from competition with a known ligand. Regarding `N=C(NCCSC[C@H]1O[C@@H](n2cnc3c(NCCCc4ccccc4)ncnc32)[C@H](O)[C@@H]1O)NCC1CCCCC1` [11a, 1-(cyclohexylmethyl)-3-(2-((((2S,3S,4R,5R)-3,4-dihydroxy-5-(6-((3-phenylpropyl)amino)-9H-purin-9-yl)tetrahydrofuran-2-yl)methyl)thio)ethyl)guanidine], on CamA [1], the IC50 is approximately 150 nM; the Ki was 90 nM; the “inhibition of CamA activity (selectivity panel)” value is on record as not below 80%; the “fold difference in CamA inhibition between 11a and 11b” value worked out at 1.8 ×. On CamA [1] (ratio of IC50 values), the “fold improvement of CamA inhibition relative to 6e” value was 10 × and the “fold improvement of CamA inhibition relative to 7” value is 5 ×. In addition, the “mode of CamA inhibition (Lineweaver–Burk plot)” value on CamA [1] (with respect to SAM) is on record as “competitive inhibition; also recorded: competitive inhibitor of SAM”. On PRMT1, the IC50 amounted to 14000 nM. Further, at PRMT1 (ratio of IC50 values), the “fold reduction of PRMT1 inhibition from that of 6e” value was approximately 116 ×. For the same molecule, the IC50 against PRMT3 was more than 100000 nM. In addition, the inhibition at 10 µM at MettL3–MettL14 was not above 50%. On MettL5–Trm112, the inhibition at 10 µM was not above 50%. The inhibition at 10 µM on PCIF1 was not above 50%.

On to `N=C(NCCCSC[C@H]1O[C@@H](n2cnc3c(N)ncnc32)[C@H](O)[C@@H]1O)NC1CCCCC1` [6d], for which the “inhibition of CamA activity at single concentration” value against CamA [1] was approximately 60%.

On to `N=C(NCCCSC[C@H]1O[C@@H](n2cnc3c(NCCCc4ccccc4)ncnc32)[C@H](O)[C@@H]1O)NCC1CCCCC1` [11b], for which the values for the IC50 against CamA [1] and against PRMT1 were 270 nM and 1200 nM, respectively. Moreover, on CamA [1], the “fold difference in CamA inhibition between 11a and 11b” value is recorded as 1.8 ×. Also, at PRMT1 (ratio of IC50 values), the “fold reduction of PRMT1 inhibition from that of 6e” value was determined as 10 ×. In addition, the “fold stronger inhibition of PRMT1 than 11a” value at PRMT1 (ratio of IC50 values) is reported as more than 11 ×. The inhibition at 10 µM on CcrM is not above 50%; on Dam, not above 50%; at MettL3–MettL14 it was not above 50%; at MettL5–Trm112, approximately 50%; at MettL16 it was not above 50%; at PCIF1, not above 50%.

For orientation: Km means the concentration of substrate that gives half-maximal velocity. In the case of `C[S+](CC[C@H](N)C(=O)[O-])C[C@H]1O[C@@H](n2cnc3c(N)ncnc32)[C@H](O)[C@@H]1O` (stereo partly drawn) [SAM, S-Adenosyl-L-methionine], the Km at CamA [1] (read-out: Km of CamA for SAM, Michaelis–Menten, varying SAM (Figure 2E)) was 25 µM; on CamA [2], more than 17 µM; with MettL5 it was 1 µM.
